Data reported in PMC12754617, “Ruthenium-enhanced curcumin derivatives target tumor growth and cancer-related inflammation in head and neck cancer models” (Frontiers in Oncology, 2025).

What was measured:
IKKβ = target: T1, IKKβ (Homo sapiens, UniProt O14920); test: IKKβ inhibition assay (IKKβ Kinase Assay Kit); format: biochemical
T1 construct: purchased BPS Bioscience
T1 sequence (O14920 1-756): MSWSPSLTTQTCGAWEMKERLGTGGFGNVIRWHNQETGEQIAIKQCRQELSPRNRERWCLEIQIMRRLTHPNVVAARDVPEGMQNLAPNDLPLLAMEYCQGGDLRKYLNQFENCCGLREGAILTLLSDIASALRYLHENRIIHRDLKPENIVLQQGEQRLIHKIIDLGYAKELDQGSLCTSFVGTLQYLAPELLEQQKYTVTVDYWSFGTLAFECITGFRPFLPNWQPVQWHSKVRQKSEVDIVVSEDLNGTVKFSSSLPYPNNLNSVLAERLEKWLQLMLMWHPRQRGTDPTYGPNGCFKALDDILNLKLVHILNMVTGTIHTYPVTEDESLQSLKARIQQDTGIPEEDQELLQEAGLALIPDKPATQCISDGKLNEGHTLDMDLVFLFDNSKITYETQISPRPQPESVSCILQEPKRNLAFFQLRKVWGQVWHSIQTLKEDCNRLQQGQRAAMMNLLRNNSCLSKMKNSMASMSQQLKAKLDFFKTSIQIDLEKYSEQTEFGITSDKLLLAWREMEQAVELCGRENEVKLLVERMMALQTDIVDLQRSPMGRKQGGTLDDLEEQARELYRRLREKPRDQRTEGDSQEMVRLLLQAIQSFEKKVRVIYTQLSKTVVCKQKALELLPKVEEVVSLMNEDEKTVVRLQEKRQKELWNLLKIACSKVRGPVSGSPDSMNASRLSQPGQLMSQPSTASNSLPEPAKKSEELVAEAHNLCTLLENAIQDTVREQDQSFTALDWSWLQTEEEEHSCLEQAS
Experimental: IκB kinase beta (IKKβ) inhibition was determined using the IKKβ Kinase Assay Kit (BPS Bioscience, San Diego, California, USA). […] Kinase-Glo® MAX (Promega, #V6071, Madison, Wisconsin, USA) was used as the detection reagent, with an incubation time of 15 min. Blank values were subtracted from all measurements. Luminescence was measured with an integration time of 1 s using a Spark Microplate Reader (Tecan, Switzerland).

SCC-9 = test: Wound healing assay; format: cell-based, human; conditions: IC25 concentration, area closed
Experimental: (§1) The wound healing activity of complexes 3 and 4 was evaluated using the ibidi Culture-Insert 2 Well in a μ-dish. Cells were plated by applying 70 μL of cell suspension at a density of 50,000 cells into both wells of the Culture-Insert 2 Well and grown over the weekend. Once confluency was achieved, sterile tweezers were used to detach the Culture-Insert 2 Well from the μ-dish. The cell layer was then gently washed with PBS. Subsequently, the cell layer was treated with medium containing complex 3 or 4 at the IC25 concentration, and wound closure was observed and photographed using an inverted light microscope (0–55 h of incubation). Experiments were performed in four independent replicates.
(§2) An in vitro wound healing assay was performed to determine the effect of complex 3 or 4 on cell migration. The area of the wound bordered by a monolayer of cells was measured using ImageJ software. Wound closure was monitored from 0 to 55 h. […] Microscope images after 24 h for all cell lines, as well as 55 h, can be seen in Supplementary Figure S7. […] The stained wound healing area after 55 h is shown in Supplementary Figure S10.

KB = test: Wound healing assay; format: cell-based, human; conditions: IC25 concentration, area closed
Experimental: as §1, §2

Hep-2 = test: Wound healing assay; format: cell-based, human; conditions: IC25 concentration, area closed
Experimental: as §1, §2

FaDu = test: Wound healing assay; format: cell-based, human; conditions: IC25 concentration, area closed
Experimental: as §1, §2

TR146 = test: Wound healing assay; format: cell-based, human; conditions: IC25 concentration, area closed
Experimental: as §1, §2

CAL 27 = test: Wound healing assay; format: cell-based, human; conditions: IC25 concentration, area closed
Experimental: as §1, §2

Detroit 562 = test: Wound healing assay; format: cell-based, human; conditions: IC25 concentration, area closed
Experimental: as §1, §2

HGF = test: Wound healing assay; format: cell-based, human; conditions: IC25 concentration, area closed
Experimental: as §1, §2

[1] = UV–Vis spectroscopy in PBS (solubility); format: physicochemical; conditions: PBS (PBS:DMSO 99:1), UV–Vis linearity of absorbance
Experimental: All chemicals were sourced from commercial suppliers and utilized directly without any additional purification steps. Nuclear Magnetic Resonance (NMR) spectra were acquired on a 400-MHz spectrometer (JEOL, Tokyo, Japan) at 25°C. The chemical shifts (δ) are given in parts per million (ppm), with coupling constants (J) measured in hertz (Hz). The ^1H and ^13C NMR shifts are referenced to TMS, and solvent signals from Dimethyl Sulfoxide (DMSO)-d6 (2.50 ppm for ^1H and 39.52 ppm for ^13C) were used as references. Data analysis was performed using MestReNova software (version 14.2.1, Mestrelab Research S.L., Santiago de Compostela, SPAIN). Full assignment was performed using a combination of ^1H, ^13C, correlation spectroscopy (COSY), heteronuclear single quantum coherence (HSQC), and heteronuclear multiple bond correlation (HMBC) experiments. Mass spectrometry was conducted in positive ion mode using electrospray ionization (ESI^+) with a high-resolution hybrid Ion Trap-Orbitrap mass spectrometer (LTQ Orbitrap Velos, Thermo Scientific, Waltham, Massachusetts, USA), Supplementary Figures S21, S22. Detailed NMR spectra for all synthesized products are available in Supplementary Figures S12-S20. […] Characteristic absorption maxima were identified, and their dependence on concentration was evaluated.

Structure (SMILES)	Wound area (%) (SCC-9; SCC-9, 24 h)	Wound area (%) (SCC-9; SCC-9, 48 h)	Wound area (%) (SCC-9; SCC-9, 55 h)	Wound area (%) (KB; 24 h)	Wound area (%) (KB; 48 h)	Wound area (%) (KB; 55 h)	Wound area (%) (Hep-2; Hep-2, 24 h)	Wound area (%) (Hep-2; Hep-2, 48 h)	Wound area (%) (Hep-2; Hep-2, 55 h)	Wound area (%) (FaDu; 24 h)	Wound area (%) (FaDu; 48 h)	Wound area (%) (FaDu; 55 h)	Wound area (%) (TR146; TR146, 24 h)	Wound area (%) (TR146; TR146, 48 h)	Wound area (%) (TR146; TR146, 55 h)	Wound area (%) (CAL 27; CAL 27, 24 h)	Wound area (%) (CAL 27; CAL 27, 48 h)	Wound area (%) (CAL 27; CAL 27, 55 h)	Wound area (%) (Detroit 562; Detroit 562, 24 h)	Wound area (%) (Detroit 562; Detroit 562, 48 h)	also measured
Cc1ccc(C(C)C)cc1.Cc1ccc(C(C)C)cc1.O=C1C(=Cc2cccnc2)CCC1=Cc1cccnc1.[Cl][Ru][Cl].[Cl][Ru][Cl] [Complex 4]	17 ± 12%	37 ± 8%	55 ± 13%	16 ± 4%	33 ± 4%	less than 50%	9 ± 2%	23 ± 3%	less than 50%	24 ± 6%	43 ± 10%	61 ± 6%	3 ± 1%	5 ± 1%	less than 15%	7 ± 4%	11 ± 3%	less than 15%	13 ± 7%	38 ± 11%	Inhibition of IKKβ activity (IKKβ; 1 μM): approximately 30%; Wound area (%) (KB; 55 h, listed as C4): 44 ± 2%; Wound area (%) (Hep-2; Hep-2, 55 h, listed as C4): 47 ± 2%; Wound area (%) (TR146; TR146, 55 h, listed as C4): 7 ± 1%; Wound area (%) (CAL 27; CAL 27, 55 h, listed as C4): 12 ± 3%; Wound area (%) (Detroit 562; Detroit 562, 55 h): 76 ± 2%; Wound area (%) (HGF; 24 h): 13 ± 3%; Wound area (%) (HGF; 48 h): 47 ± 11%; Wound area (%) (HGF; 55 h): 91 ± 1%; Solubility in the buffered environment [1]: sufficient solubility
Cc1ccc(C(C)C)cc1.Cc1ccc(C(C)C)cc1.O=C1C(=Cc2ccnc3ccccc23)COCC1=Cc1ccnc2ccccc12.[Cl][Ru][Cl].[Cl][Ru][Cl] [Complex 3]	5 ± 2%	6 ± 2%	less than 10%	7 ± 1%	13 ± 1%	less than 20%	3 ± 1%	5 ± 1%	less than 10%	7 ± 1%	9 ± 1%	less than 20%	3 ± 1%	4 ± 1%	less than 10%	10 ± 2%	15 ± 3%	less than 20%	8 ± 2%	9 ± 3%	Reduction of IKKβ activity (IKKβ; 8 μM): about 40%; Wound area (%) (SCC-9; SCC-9, 55 h, listed as C3): 7 ± 2%; Wound area (%) (KB; 55 h, listed as C3): 17 ± 2%; Wound area (%) (Hep-2; Hep-2, 55 h, listed as C3): 7 ± 1%; Wound area (%) (FaDu; 55 h, listed as C3): 12 ± 1%; Wound area (%) (TR146; TR146, 55 h, listed as C3): 5 ± 1%; Wound area (%) (CAL 27; CAL 27, 55 h, listed as C3): 16 ± 3%; Wound area (%) (Detroit 562; Detroit 562, 55 h): less than 20%; Wound area (%) (Detroit 562; Detroit 562, 55 h, listed as C3): 10 ± 2%; Wound area (%) (HGF; 24 h): 8 ± 3%; Wound area (%) (HGF; 48 h): 13 ± 5%; Wound area (%) (HGF; 55 h): 71 ± 2%; Solubility in the buffered environment [1]: sufficient solubility
